Reference: patent US8470834B2, “AZO-substituted pyridine and pyrimidine derivatives and their use in treating viral infections” (Merck Sharp & Dohme Corp., priority 2008, dated 2013)

Assays:
HCV replicon cells = assay: Cell-based HCV Replicon Assay; settings: Hepatitis C virus, 72 h; replicon RNA level by real time PCR (Taqman), day 3; EC90 = concentration to achieve ΔCT=3.2 over baseline
Procedure: Assays Cell-based HCV Replicon Assay
To measure cell-based anti-HCV activity of the compounds of the present invention, replicon cells were seeded at 5000 cells/well in 96-well collagen I-coated Nunc plates in the presence of the compound of the invention. […] The final concentration of DMSO was 0.5%, fetal bovine serum was 10%, in the assay media. […] The replicon RNA level was measured using real time PCR (Taqman assay). The amplicon was located in 5B. The
GAPDH RNA was used as endogenous control and was amplified in the same reaction as NS5B (multiplex PCR) using primers and VIC-labeled probe recommended by the manufacturer (PE Applied Biosystem). The real-time RT-PCR reactions were run on ABI PRISM 7900HT Sequence Detection System using the following program: 48° C. for 30 min, 95° C. for 10 min, 40 cycles of 95° C. for 15 sec, 60° C. for 1 min. The ΔCT values (CT5B-CTGAPDH) were plotted against the concentration of test compound and fitted to the sigmoid dose-response model using GraphPad PRISM software. EC50 was defined as the concentration of inhibitor necessary to achieve ΔCT=1 over the projected baseline; EC90 the concentration necessary to achieve ΔCT=3.2 over the baseline. Alternatively, to quantitate the absolute amount of replicon RNA, a standard curve was established by including serially diluted T7 transcripts of replicon RNA in the Taqman assay. […]

Row | SMILES | EC90 (HCV replicon cells) [µM] | melting point
1 | Nc1nc(Cl)c(/N=N/c2ccc(Cl)cc2)c(N[C@@H]2C[C@H](CO)[C@@H](O)C2)n1 (racemic) [Compound 8, Cyclopentanemethanol, 4-[[2-amino-6-chloro-5-[(4-chlorophenyl)azo]-4-pyrimidinyl]amino]-2-hydroxy-, cis, trans—(+−)—] | > 5 | 
2 | Nc1nc(Cl)c(/N=N/c2ccc(Cl)cc2)c(N[C@H]2C[C@@H](CO)[C@H](O)[C@@H]2O)n1 [Compound 11, (1S,2R,3S,5S)-3-[[2-amino-6-chloro-5-[(4-chlorophenyl)azo]-4-pyrimidinyl]amino]-5-(hydroxymethyl)-1,2-cyclopentanediol] |  | 238 to 241 °C (dec.)
